Source: patent US20170152258A9, “Substituted Pyridopyrazines as Syk Inhibitors” (HUTCHISON MEDIPHARMA LIMITED, priority 2012, published 2017)
Values joined by “and” are separate entries in the source; they are usually repeats but may differ in a detail not shown here. Equal entries are not always repeated.

How the values were obtained:
Syk kinase = Syk kinase (Homo sapiens, UniProt P43405); test: SYK Enzymatic Assay (Z-LYTE Tyr 2 peptide); type: biochemical; conditions: 8 concentrations 1 μM down to 0.0003 μM
In short: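 Z-LYTE format using Tyr 2 peptide. After the 1 h room-temperature kinase reaction, development reagent was added for 1 h, then stop reagent. Fluorescence was read at 445 and 520 nm. Compounds were tested at 8 concentrations, 1 μM down to 0.0003 μM (1:3 dilutions).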

RBL-2H3 cells = test: IgE-induced Beta-hexosaminidase secretion in RBL-2H3 cells; type: cell-based; conditions: DNP-BSA stimulation
Protocol: For the determination of IgE-induced Beta-hexosaminidase secretion, RBL-2H3 cells (SIBS) are seeded in 96 well plates at 4×10^4 cells per well and incubated in MEM media with 15% FBS and Glutamine ([…]) for 4 hours and sensitized with 0.5 ug/ml of SPE-7 overnight. Cells are washed 3 times with Tyrode's buffer and incubated in the presence or absence of various concentrations of the testing compound for 20 min at 37° C., 5% CO2. Cells are stimulated by adding 10 uL of DNP-BSA solution (150 ng/mL) to each well and incubating for 45 minutes at 37° C., 5% CO2. Then, 45 μL of the supernatant is taken and incubated with 100 μL of 1 mM 4-Nitrophenyl N-acetyl-β-D-glucosaminide (Sigma, Cat. No. N9376), which is diluted in 0.05 M citrate buffer (pH 4.5), for 1.5 hr at 37° C. The reactions are quenched by adding 185 μL of 0.05 M sodium carbonate buffer (pH 10.0). Plates are read at 405 nm on Multiskan (MK 3).

[1] = Rattus norvegicus, RBL-2H3, IgE-induced Beta-hexosaminidase secretion
[2] = IgE-induced Beta-hexosaminidase secretion

Compound | IC50 (Syk kinase) | IC50 (RBL-2H3 cells; [1]) | IC50 (RBL-2H3 cells; [2])
Cc1cc(-c2cc3nccnc3c(O[C@@H]3CCOC3)n2)ccc1N1CCN(S(C)(=O)=O)CC1 [Compound 210] | 30 nM | 32 nM | –
CNC(=O)N1CCO[C@H](COc2nc(-c3ccc(C(C)(C)C#N)cc3)cc3nccnc23)C1 [Compound 249] | 42 nM | 69 nM | –
CN1CCc2cc(-c3cc4nccnc4c(OC[C@@H]4CN(C(N)=O)CCO4)n3)ccc21 [Compound 216] | 49 nM | 122 nM | –
CS(=O)(=O)N1CCO[C@H](COc2nc(-c3ccc(C4(C#N)CCC4)cc3)cc3nccnc23)C1 [Compound 282] | 26 nM | 92 nM | –
CC(C)(C)c1ccc(-c2cc3nccnc3c(OC[C@@H]3CN(C(N)=O)CCO3)n2)cc1 [Compound 255] | 27 nM | 97 nM | –
CNS(=O)(=O)N1CCO[C@H](COc2nc(-c3ccc(OC)c(OC)c3)cc3nccnc23)C1 [Compound 220] | 86 nM | 69 nM | –
CC(=O)N1CCO[C@H](COc2nc(-c3ccc(C(C)(C)CN)cc3)cc3nccnc23)C1 [Compound 267] | 477 nM | 1260 nM | –
CS(=O)(=O)N1CCO[C@H](COc2nc(-c3ccc4c(c3)OCO4)cc3nccnc23)C1 [Compound 110] | 211 nM | 163 nM | –
NC(=O)N1CCO[C@H](COc2nc(-c3ccc(C4CCOCC4)cc3)cc3nccnc23)C1 [Compound 241, (S)-2-(((7-(4-(tetrahydro-2H-pyran-4-yl)phenyl)pyrido[3,4-b]pyrazin-5-yl)oxy)methyl)morpholine-4-carboxamide] | 47 nM | 124 nM | –
CC(=O)N1CCO[C@H](COc2nc(-c3ccc(C(C)(C)C)cc3)cc3nccnc23)C1 [Compound 254] | 55 nM | 99 nM | –
CC(C)(O)Cc1ccc(-c2cc3nccnc3c(OC[C@@H]3CN(S(C)(=O)=O)CCO3)n2)cc1 [Compound 273] | 85 nM | 176 nM | –
CC(C)(CO)c1ccc(-c2cc3nccnc3c(OC[C@@H]3CN(S(C)(=O)=O)CCO3)n2)cc1 [Compound 288] | 25 nM | 85 nM | 48 nM
CS(=O)(=O)N1CCO[C@H](COc2nc(-c3ccc4[nH]ncc4c3)cc3nccnc23)C1 [Compound 203] | 60 nM | 107 nM | –
CN1CCCc2cc(-c3cc4nccnc4c(OC[C@@H]4CN(C(N)=O)CCO4)n3)ccc21 [Compound 209] | 17 nM | 57 nM | –
Cn1ccc2ccc(-c3cc4nccnc4c(OC[C@@H]4CN(S(C)(=O)=O)CCO4)n3)cc21 [Compound 120] | 61 nM | 41 nM | –
CN(C)c1ccc(-c2cc3nccnc3c(OC[C@@H]3CN(C(=O)CCC#N)CCO3)n2)cc1 [Compound 77] | 85 nM | 202 nM | –
CN1CCc2cc(-c3cc4nccnc4c(OC[C@@H]4CN(S(C)(=O)=O)CCO4)n3)ccc21 [Compound 214] | 16 nM | 20 nM | –

Compound | IC50 (Syk kinase) | IC50 (RBL-2H3 cells; [1]) | IC50 (RBL-2H3 cells; [2])
NS(=O)(=O)N1CCO[C@H](COc2nc(-c3ccc(N4CCC(F)(F)CC4)cc3)cc3nccnc23)C1 [Compound 29] | 66 nM | 106 nM | –
CNc1ccc(-c2cc3nccnc3c(O[C@@H]3CCOC3)n2)cc1 [Compound 133] | 45 nM | 24 nM | –
NC(=O)N1CCO[C@H](COc2nc(-c3ccc(N4CCOCC4)cc3)cc3nccnc23)C1 [Compound 63] | 37 nM | 342 nM | –
CN(C)c1ccc(-c2cc3nccnc3c(OC[C@@H]3CN(C(=O)C4CCOCC4)CCO3)n2)cc1 [Compound 73] | 204 nM | 142 nM | –
O=C(C(F)F)N1CCO[C@H](COc2nc(-c3ccc(N4CCOCC4)c(F)c3)cc3nccnc23)C1 [Compound 15] | 96 nM | 102 nM | –
CN1CCN(c2ccc(-c3cc4nccnc4c(O[C@@H]4CCOC4)n3)cc2)CC1 [Compound 125] | 31 nM | 43 nM | –
CC(C)c1ccc(-c2cc3nccnc3c(OC[C@@H]3CN(S(C)(=O)=O)CCO3)n2)cc1 [Compound 181] | 91 nM and 68 nM | 57 nM | 69 nM
CN(C)CCS(=O)(=O)N1CCO[C@H](COc2nc(-c3ccc(N4CCOCC4)cc3)cc3nccnc23)C1 [Compound 65] | 53 nM | 181 nM | –
CN(C)c1ccc(-c2cc3nccnc3c(O[C@@H]3CCOC3)n2)cc1 [Compound 123] | 30 nM | 35 nM | –
CC(=O)N1CCO[C@H](COc2nc(-c3ccc4c(c3)CCCN4C)cc3nccnc23)C1 [Compound 185] | 40 nM | 64 nM | –
c1cnc2c(O[C@@H]3CCOC3)nc(-c3ccc(C4CCNCC4)cc3)cc2n1 [Compound 190] | 50 nM | 645 nM | –
NC(=O)N1CCO[C@H](COc2nc(-c3ccc(C4(O)CCC4)cc3)cc3nccnc23)C1 [Compound 311] | 35 nM | 620 nM | –
CC(C)(C)c1ccc(-c2cc3nccnc3c(OC[C@@H]3CN(S(N)(=O)=O)CCO3)n2)cc1 [Compound 257] | 63 nM | 160 nM | –
CNS(=O)(=O)N1CCOC(COc2nc(-c3ccc(C(C)(C)O)cc3)cc3nccnc23)C1 (stereo not shown) [Compound 262] | 79 nM | 269 nM | –
CC(=O)N1CCN(c2ccc(-c3cc4nccnc4c(O[C@@H]4CCOC4)n3)cc2C)CC1 [Compound 205] | 27 nM | 19 nM | –
CC1(C)OCCc2cc(-c3cc4nccnc4c(OC[C@@H]4CN(S(C)(=O)=O)CCO4)n3)ccc21 [Compound 302] | 9 nM | 30 nM | –

Second part, the compound after the results:

IC50 (Syk kinase) | IC50 (RBL-2H3 cells; [1]) | IC50 (RBL-2H3 cells; [2]) | Compound
19 nM | 52 nM | – | CN(C)c1ccc(-c2cc3nccnc3c(OC[C@@H]3CN(S(C)(=O)=O)CCO3)n2)cc1Cl [Compound 108]
26 nM | 27 nM | – | CN(C)c1ccc(-c2cc3nccnc3c(OC[C@@H]3CN(S(C)(=O)=O)CCO3)n2)cn1 [Compound 218]
30 nM | 117 nM | – | COCCN1CCC(c2ccc(-c3cc4nccnc4c(OC[C@@H]4CN(S(C)(=O)=O)CCO4)n3)cc2)CC1 [Compound 59]
60 nM | 76 nM | – | CN(C)c1ccc(-c2cc3nccnc3c(OC[C@@H]3CN(C(=O)C(F)F)CCO3)n2)cc1F [Compound 32]
117 nM | 119 nM | – | CS(=O)(=O)N1CCO[C@H](COc2nc(-c3ccc4ncccc4c3)cc3nccnc23)C1 [Compound 111]
66 nM | 143 nM | – | Fc1cc(-c2cc3nccnc3c(O[C@@H]3CCOC3)n2)ccc1N1CCOCC1 [Compound 193]
23 nM | 62 nM | – | CC1CN(c2ccc(-c3cc4nccnc4c(OC[C@@H]4CN(S(C)(=O)=O)CCO4)n3)cc2)CCO1 (stereo partly shown) [Compound 18]
44 nM | 43 nM | – | CCN(CC)c1ccc(-c2cc3nccnc3c(O[C@@H]3CCOC3)n2)cc1 [Compound 151]
32 nM | 29 nM | – | Cc1cc(-c2cc3nccnc3c(O[C@@H]3CCOC3)n2)ccc1N(C)C [Compound 155]
95 nM | 131 nM | – | CN(C)c1ccc(-c2cc3nccnc3c(OC[C@@H]3CN(C(=O)[C@H]4CC[C@@H](O)CC4)CCO3)n2)cc1 [Compound 75]
50 nM | 55 nM | – | CN(C)c1ccc(-c2cc3nccnc3c(OC[C@@H]3CN(C(=O)C(C)(F)F)CCO3)n2)cc1 [Compound 172]
3 nM | 15 nM | – | Cc1cc(-c2cc3nccnc3c(OC[C@@H]3CN(S(C)(=O)=O)CCO3)n2)ccc1N(C)C [Compound 134]
36 nM | 92 nM | – | CC(C)(C)c1ccc(-c2cc3nccnc3c(OC[C@@H]3CN(S(C)(=O)=O)CCO3)n2)cc1 [Compound 256]
95 nM | 44 nM | – | CC(Oc1nc(-c2ccc(N(C)C)cc2)cc2nccnc12)C1CN(S(N)(=O)=O)CCO1 (stereo not shown) [Compound 246]
30 nM | 60 nM | – | c1cnc2c(O[C@@H]3CCOC3)nc(-c3ccc(N4CCOCC4)cc3)cc2n1 [Compound 149]
18 nM | 36 nM | – | COC(C)(C)c1ccc(-c2cc3nccnc3c(OC[C@@H]3CN(S(C)(=O)=O)CCO3)n2)cc1 [Compound 268]
83 nM | 278 nM | – | COc1ccc(-c2cc3nccnc3c(OC[C@@H]3CN(S(C)(=O)=O)CCO3)n2)cc1 [Compound 38]
32 nM | 325 nM | – | CN(C)c1ccc(-c2cc3nccnc3c(OC[C@@H]3CN(S(=O)(=O)CCN4CC[C@H](O)C4)CCO3)n2)cc1 [Compound 103]
42 nM | 87 nM | – | CC(C)(C(N)=O)c1ccc(-c2cc3nccnc3c(OC[C@@H]3CN(S(C)(=O)=O)CCO3)n2)cc1 [Compound 231]
60 nM | 200 nM | – | CN(C)c1ccc(-c2cc3nccnc3c(OC[C@@H]3CN(C(=O)c4cnn(C)c4)CCO3)n2)cc1 [Compound 87]
81 nM | 187 nM | – | CS(=O)(=O)N1CCO[C@H](COc2nc(-c3ccc(CN4CCOCC4)cc3)cc3nccnc23)C1 [Compound 258]
76 nM | 127 nM | – | CC(=O)N1CCO[C@H](COc2nc(-c3ccc(N4CCOCC4)cc3)cc3nccnc23)C1 [Compound 24]
